# Assay results: patent US7462599B2, “Use of effectors of glutaminyl and glutamate cyclases” (Probiodrug AG, priority 2003, dated 2008)
# “And” between values parts separate entries of the source, which are not always exact repeats. Equal entries are not always repeated. “Also recorded” adds a separate entry of the source. Bridge positions count the residues as written; N and C are the ends. Square brackets hold non-standard residues; d marks the D form. Ends that are not written are not given here. Peptide text beside a SMILES is read from it. β3hQ = NC(=O)CC[C@H](N)CC(=O)O
# Key:
# QC [1] = target: T1, QC (Homo sapiens, UniProt Q16769); experiment: Inhibitor assay, human QC catalyzed reaction (Ki determination); type: biochemical; set-up: The cDNA of the mature QC starting with codon 38 was fused in frame with the plasmid encoded 6× histidine tag; 6x histidine tag; made in house; host or cells: Pichia pastoris X33 (pPICZαB); also E. coli M15 (pQE-31)
# T1 sequence (Q16769 29-361): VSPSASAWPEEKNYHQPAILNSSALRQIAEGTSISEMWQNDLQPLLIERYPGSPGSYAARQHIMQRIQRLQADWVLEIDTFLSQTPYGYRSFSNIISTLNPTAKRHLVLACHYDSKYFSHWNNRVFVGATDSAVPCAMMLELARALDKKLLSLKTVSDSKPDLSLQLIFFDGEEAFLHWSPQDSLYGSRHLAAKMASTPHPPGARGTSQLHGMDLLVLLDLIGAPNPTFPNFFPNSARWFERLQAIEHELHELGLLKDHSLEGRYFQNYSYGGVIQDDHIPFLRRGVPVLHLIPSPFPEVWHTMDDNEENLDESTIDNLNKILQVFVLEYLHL
# QC [2] = target: T1, QC; experiment: Enzyme inactivation/reactivation of human QC; type: biochemical; set-up: The cDNA of the mature QC starting with codon 38 was fused in frame with the plasmid encoded 6× histidine tag; 6x histidine tag; made in house; host or cells: Pichia pastoris X33 (pPICZαB); also E. coli M15 (pQE-31)
# mammalian QC = conditions: Busby et al. 1987; cited from earlier work
# QC [3] = target: T1, QC; experiment: Fluorometric QC assay with pyroglutamyl aminopeptidase as auxiliary enzyme, human QC; type: biochemical; set-up: The cDNA of the mature QC starting with codon 38 was fused in frame with the plasmid encoded 6× histidine tag; 6x histidine tag; made in house; host or cells: Pichia pastoris X33 (pPICZαB); also E. coli M15 (pQE-31); conditions: for conversion by human QC: analyzed fluorometrically; for inhibition of human QC by the peptide: H-Gln-AMC as substrate
# Source text: Excitation/emission wavelengths were 320/410 nm.
# H-Glu(OMe)-βNA and H-Glu-βNA.
# [4] = Method: H-Glu(OMe)-βNA and H-Glu-βNA. […] These fluorogenic substrates were analyzed fluorometrically, utilizing pyroglutamyl aminopeptidase as auxiliary enzyme.
# QC [5] = target: T1, QC; experiment: Continuous spectrophotometric assay of substrate conversion, human QC;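 as to all read-outs here: initial rates read at 30 °C in a microplate reader, with activity quantified against an ammonia calibration curve under the same assay conditions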; type: biochemical; set-up: The cDNA of the mature QC starting with codon 38 was fused in frame with the plasmid encoded 6× histidine tag; 6x histidine tag; made in house; host or cells: Pichia pastoris X33 (pPICZαB); also E. coli M15 (pQE-31); conditions: for Ki / Ki*: n.i. = no inhibition; for Ki*: for substrate inhibition
# Method: The initial velocities were evaluated and the enzymatic activity was determined from a standard curve of ammonia under assay conditions. All samples were measured at 30° C., using either the [sequence]luor Plus or the Sunrise (both from TECAN) reader for microplates. Kinetic data was evaluated using GraFit software.
# QC [6] = target: T1, QC; experiment: Discontinuous method for QC kinetic parameters; type: biochemical
# QC [7] = target: T1, QC; experiment: MALDI-TOF qualitative substrate conversion, human QC; type: biochemical; set-up: The cDNA of the mature QC starting with codon 38 was fused in frame with the plasmid encoded 6× histidine tag; 6x histidine tag; made in house; host or cells: Pichia pastoris X33 (pPICZαB); also E. coli M15 (pQE-31)
# Method: Matrix-assisted laser desorption/ionization mass spectrometry was carried out using the Hewlett-Packard G2025 LD-TOF System with a linear time of flight analyzer. […] Samples (5 μl) were mixed with equal volumes of the matrix solution. For matrix solution we used DHAP/DAHC, prepared by solving 30 mg 2′,6′-dihydroxyacetophenone (Aldrich) and 44 mg diammonium hydrogen citrate (Fluka) in 1 ml acetonitrile/0.1% TFA in water (1/1, v/v). A small volume (≈1 μl) of the matrix-analyte-mixture was transferred to a probe tip and immediately evaporated in a vacuum chamber (Hewlett-Packard G2024A sample prep accessory) to ensure rapid and homogeneous sample crystallization.
# In order to further investigate the specificity and selectivity of the QCs, peptides were synthesized comprising either a modified N-terminal glutaminyl residue or a modified amino acid in the second position. […] Due to the cyclization of the glutaminyl residue or its analog, respectively, a mass difference of the substrate and the product of catalysis is detected. In cases of ammonia liberation of one mole per mole of substrate, the conversion was also analyzed quantitatively using the spectrophotometric assay.
# [8] = 0.05 M Tris-HCl, pH 8.0, 0.5 M KCl
# [9] = recombinant human QC, buffer containing 1% DMSO
molecule,measurement,setting,value
Cn1cnc(CCN)c1 [1-methyl-4-(β-aminoethyl)-imidazole],inhibition of human QC,QC [1],complete loss of inhibitory activity
same,Ki value,"QC [1]; Table 4, n.i. = no inhibition",n.i.
c1ccc(-n2ccnc2)cc1 [1-phenylimidazole],inhibition of human QC,QC [1],inactive under the experimental conditions
O=C1CNC(=S)N1CCCn1ccnc1 [3-[3-(1H-imidazol-1-yl)propyl]-2-thioxoimidazolidin-4-one],Ki,"QC [1]; 30° C., 0.05 M Tris-HCl pH 8.0, 5 mM EDTA",810 ± 10 nM
Oc1cccc2cccnc12 [8-hydroxyquinoline],inhibition of human QC catalyzed substrate cyclization by chelators,QC [2],abolished
O=C(O)CN(CCN(CC(=O)O)CC(=O)O)CC(=O)O [EDTA],inhibition of human QC catalyzed substrate cyclization by chelators,QC [2],did not show remarkable inhibition
same,inhibition of mammalian QC,mammalian QC,did not inhibit
"N[C@@H](CCC(=O)O)C(=O)Nc1ccc2ccccc2c1 [Glu-βNA, H-Glu-βNA]",conversion by human QC,QC [3],Neither of these compounds were converted
same,"limiting rate constant for nonenzymatic turnover (estimate, no product formed)","[4]; pH 6.0, 4 weeks",≤ 1e-09 s⁻¹
Cc1cc(=O)oc2cc(NC(=O)[C@@H](N)CCC(N)=O)ccc12 [H-Gln-AMC],Km,"QC [5]; Table 6, n.r. = not reactive",54 ± 2 µM
same,kcat,"QC [5]; Table 6, n.r. = not reactive",5.3 ± 0.1 s⁻¹
C[C@H](NC(=O)[C@H](C)NC(=O)[C@@H](N)CCC(N)=O)C(N)=O [H-Gln-Ala-Ala-NH2] (H-Gln-Ala-Ala-NH2),kcat,"QC [5]; Table 7, substrate length",76.3 ± 0.7 s⁻¹
C[C@H](NC(=O)[C@@H](N)CCC(N)=O)C(N)=O [H-Gln-Ala-NH2] (H-Gln-Ala-NH2),kcat,"QC [5]; Table 7, substrate length",40.1 ± 0.9 s⁻¹
C[C@H](NC(=O)[C@@H](N)CCC(N)=O)C(=O)O [H-Gln-Ala-OH] (H-Gln-Ala-OH),Km,QC [5],232 ± 5 µM
same,kcat,"QC [5]; 0.05 M Tris-HCl, pH 8.0",54.4 ± 0.5 s⁻¹
same,kcat,QC [5]; [8],47.6 ± 0.6 s⁻¹
same,Ki,QC [5]; [8],n.i.
same,Ki,"QC [5]; 0.05 M Tris-HCl, pH 8.0",n.i.
same,Ki*,QC [5]; Table 6,n.i.
same,kcat,"QC [5]; Table 6, n.r. = not reactive",57.2 ± 0.4 s⁻¹
same,Km,QC [5]; pH 8,269 µM and 357 µM
NC(=O)CC[C@H](NC(=O)[C@@H](N)CCC(N)=O)C(=O)O [H-Gln-Gln-OH] (H-Gln-Gln-OH),Km,QC [5],148 ± 5 µM
same,Ki*,QC [5]; Table 6,n.i.
same,kcat,"QC [5]; Table 6, n.r. = not reactive",20.7 ± 0.2 s⁻¹
same,Km,QC [6],175 ± 18 µM
same,kcat,QC [6]; discontinuous method,21.3 ± 0.6 s⁻¹
NC(=O)CC[C@H](N)C(=O)N[C@@H](CCC(=O)O)C(=O)O [H-Gln-Glu-OH] (H-Gln-Glu-OH),kcat,"QC [5]; 0.05 M Tris-HCl, pH 8.0",21.4 ± 0.3 s⁻¹
same,kcat,QC [5]; [8],18.9 ± 0.5 s⁻¹
same,Ki,QC [5]; [8],n.i.
same,Ki,"QC [5]; 0.05 M Tris-HCl, pH 8.0",n.i.
same,Ki*,QC [5]; Table 6,n.i.
same,kcat,"QC [5]; Table 6, n.r. = not reactive",24.7 ± 0.2 s⁻¹
same,Km,QC [5]; pH 8,373 µM and 607 µM
NC(=O)CC[C@H](N)C(N)=O [H-Gln-NH2],Km,"QC [5]; 0.05 M Tris-HCl, pH 8.0",442 ± 30 µM
same,kcat,"QC [5]; 0.05 M Tris-HCl, pH 8.0",12.8 ± 0.3 s⁻¹
same,kcat,QC [5]; [8],12.2 ± 0.1 s⁻¹
same,Ki,QC [5]; [8],n.i.
same,Ki,"QC [5]; 0.05 M Tris-HCl, pH 8.0",n.i.
same,Ki*,QC [5]; Table 6,n.i.
same,kcat,"QC [5]; Table 6, n.r. = not reactive",12.8 ± 0.5 s⁻¹
NC(=O)CC[C@H](N)C(=O)O [H-Gln-OH],KM,"QC [5]; Table 6, n.r. = not reactive",n.r.
same,kcat,"QC [5]; Table 6, n.r. = not reactive",n.r.
CC(C)(C)OC(=O)C(N)CCC(N)=O (stereo not drawn) [H-Gln-OtBu],Ki*,QC [5]; Table 6,n.i.
same,Km,"QC [5]; Table 6, n.r. = not reactive",1240 ± 74 µM
same,kcat,"QC [5]; Table 6, n.r. = not reactive",6.7 ± 0.2 s⁻¹
NC(=O)CC[C@H](N)C(=O)N[C@@H](Cc1ccc(O)cc1)C(=O)O [H-Gln-Tyr-OH] (H-Gln-Tyr-OH),Km,QC [5],211 ± 5 µM
same,Ki*,QC [5]; Table 6,n.i.
same,kcat,"QC [5]; Table 6, n.r. = not reactive",94 ± 1 s⁻¹
CC(C)[C@H](NC(=O)[C@@H](N)CCC(N)=O)C(=O)O [H-Gln-Val-OH] (H-Gln-Val-OH),Km,QC [5],196 ± 5 µM
same,Ki*,QC [5]; Table 6,n.i.
same,kcat,"QC [5]; Table 6, n.r. = not reactive",17.2 ± 0.1 s⁻¹
NC(=O)CC[C@H](N)C(=O)Nc1ccc2ccccc2c1 [H-Gln-βNA],kcat,QC [5],20.6 ± 0.5 s⁻¹
same,kcat,QC [5]; pH 8,21.7 ± 0.5 s⁻¹ and 20.0 ± 0.4 s⁻¹
same,first-order rate constant of nonenzymatic pGlu-formation,"[4]; pH 6.0, followed for 4 weeks",1.2*10^−7 s^−1
COC(=O)CC[C@H](N)C(=O)N[C@@H](Cc1ccccc1)C(=O)N[C@@H](CCCCN)C(=O)N[C@@H](CCCNC(=N)N)C(=O)N[C@@H](CC(C)C)C(=O)N[C@@H](C)C(N)=O [H-Glu(OMe)-Phe-Lys-Arg-Leu-Ala-NH2] (H-E(OMe)FKRLA-NH2),inhibition of human QC by the peptide,QC [3],not inhibited
"COC(=O)CC[C@H](N)C(=O)Nc1ccc2ccccc2c1 [H-Glu(OMe)-βNA, H-Glu(OMe)-β-naphthylamide]",conversion by human QC,QC [3],Neither of these compounds were converted
same,stability in Tris and Tricine buffers (non-enzymatically catalyzed cyclization),[4],remarkable instability
O=S(=O)([O-])[O-].[Zn+2] [ZnSO4],restoration of QC activity after inactivation,QC [2]; metal ion incubation in presence of 0.5 mM EDTA,Near-total restoration
O=C(O)c1cccc(C(=O)O)n1 [dipicolinic acid],inactivation of human QC after extensive dialysis,QC [2],almost completely inactivated
same,inhibition of human QC catalyzed substrate cyclization by chelators,QC [2],abolished
H-EFKRLA-NH2 [H-Glu-Phe-Lys-Arg-Leu-Ala-NH2],inhibition of human QC by the peptide,QC [3],not inhibited
H-Gln(NMe)-Phe-Lys-Ala-Glu-NH2 (H-QFKAE-NH2; not fully specified (residue 1); printed as H-Gln(NMe)-Phe-Lys-Ala-Glu-NH2),inhibition of human QC by the peptide,QC [3],not detected
same,conversion by human QC,QC [7],not recognized by human QC; also recorded: No substrate conversion was observed
H-Gln-Lys(Gln)-Arg-Leu-Ala-NH2 (H-QK(Gln)RLA-NH2; SMILES CC(C)C[C@H](NC(=O)[C@H](CCCNC(=N)N)NC(=O)[C@H](CCCCNC(=O)[C@@H](N)CCC(N)=O)NC(=O)[C@@H](N)CCC(N)=O)C(=O)N[C@@H](C)C(N)=O) [H-Gin-Lys(Gln)-Arg-Leu-Ala-NH2],conversion by human QC,QC [7],converted
H-Gln-cyclo(Nε-Lys-Arg-Pro-Ala-Gly-Phe) (H-QKRPAGF; lactam 2-C; SMILES C[C@@H]1NC(=O)[C@@H]2CCCN2C(=O)[C@H](CCCNC(=N)N)NC(=O)[C@@H](NC(=O)[C@@H](N)CCC(N)=O)CCCCNC(=O)[C@H](Cc2ccccc2)NC(=O)CNC1=O),Km,QC [5],240 ± 14 µM
same,kcat (turnover number),QC [5],22.8 ± 0.6 s⁻¹
H-QAAAA-NH2 [H-Gln-Ala-Ala-Ala-Ala-NH2],Km,"QC [5]; Table 7, substrate length",65 ± 3 µM
same,kcat,"QC [5]; Table 7, substrate length",60.5 ± 0.7 s⁻¹
H-QAASAA-NH2 [H-Gln-Ala-Ala-Ser-Ala-Ala-NH2],Km,"QC [5]; Table 7, substrate length",79 ± 6 µM
same,kcat,"QC [5]; Table 7, substrate length",55.3 ± 1.6 s⁻¹
H-βhomoGln-Phe-Lys-Arg-Leu-Ala-NH2 (H-[β3hQ]FKRLA-NH2; SMILES CC(C)C[C@H](NC(=O)[C@H](CCCNC(=N)N)NC(=O)[C@H](CCCCN)NC(=O)[C@H](Cc1ccccc1)NC(=O)C[C@@H](N)CCC(N)=O)C(=O)N[C@@H](C)C(N)=O),Km,QC [5],2500 ± 200 µM
same,fold reduced efficiency of cyclization compared to peptides of similar size with N-terminal glutaminyl residue,QC [5],approximately 1000 fold
same,kcat (turnover number),QC [5],3.5 ± 0.1 s⁻¹
QFRHDSGYEVHHQKLVFFA-NH2 [[Gln^3]Aβ3-21a],Km,QC [5]; [9],162 ± 12 µM
same,kcat,QC [5]; [9],62 ± 3 s⁻¹
[Gln^1]-GnRH: GnRH with N-terminal glutamine: QHWSYGL RP(G) amide,Km,QC [5]; Table 1,53 ± 3 µM
same,kcat,QC [5]; Table 1,69.2 ± 1.1 s⁻¹
reduced 6-methylpterin,inhibition of mammalian QC,mammalian QC,Inhibition of a mammalian QC was only detected
